Each block holds one compound with its values, some of them ahead of it. Square brackets hold non-standard residues; d marks the D form. Peptide text beside a SMILES is read from it. Tyr(SO2F) = N[C@@H](Cc1ccc(OS(=O)(=O)F)cc1)C(=O)O; NMeA = CN[C@@H](C)C(=O)O
Columns and labels:
[1] = Half-life of the compound at pH 7.2 by NMR spectroscopy; assay type: physicochemical
[2] = Half-life in 50 mM phosphate buffer of pH 7.5 at 37 degreeC by 1H NMR method; assay type: physicochemical; conditions: for half-life: phosphate buffer; for t1/2: buffer
[3] = Aqueous stability of the compound in simulated gastric fluid at pH 1.5 by NMR spectroscopy
[4] = Stability in mouse plasma at 200 uM by LC-MS method; assay type: ADME, cell-free
[5] = Half-life in mouse plasma at 200 uM by LC-MS method; assay type: ADME, cell-free
[6] = Aqueous stability of the compound pH 7.2 by NMR spectroscopy; assay type: physicochemical; conditions: buffer
[7] = target: T1, E3 ubiquitin-protein ligase XIAP (Homo sapiens, UniProt P98170)
[8] = target: T1, E3 ubiquitin-protein ligase XIAP; remark: listed apart in the source
SK-OV-3 [9] = assay: Induction of apoptosis in human SKOV3 cells assessed caspase-3 activation after 24 hrs by IncuCyte S3 live-cell analysis; assay type: functional, cell-based; conditions: SK-OV-3, 24 h
SK-OV-3 [10] = assay: Induction of apoptosis in human SKOV3 cells assessed caspase-3 activation after 48 hrs by IncuCyte S3 live-cell analysis; assay type: functional, cell-based; conditions: SK-OV-3, 48 h
[11] = Drug degradation in mouse plasma at 200 uM after 40 min by LC-MS method; assay type: ADME, cell-free; conditions: read-out: Drug degradation
[12] = target: T1, E3 ubiquitin-protein ligase XIAP; assay: biochemical
[13] = target: T1, E3 ubiquitin-protein ligase XIAP; assay: biochemical; remark: listed apart in the source

T1 sequence (P98170 whole entry): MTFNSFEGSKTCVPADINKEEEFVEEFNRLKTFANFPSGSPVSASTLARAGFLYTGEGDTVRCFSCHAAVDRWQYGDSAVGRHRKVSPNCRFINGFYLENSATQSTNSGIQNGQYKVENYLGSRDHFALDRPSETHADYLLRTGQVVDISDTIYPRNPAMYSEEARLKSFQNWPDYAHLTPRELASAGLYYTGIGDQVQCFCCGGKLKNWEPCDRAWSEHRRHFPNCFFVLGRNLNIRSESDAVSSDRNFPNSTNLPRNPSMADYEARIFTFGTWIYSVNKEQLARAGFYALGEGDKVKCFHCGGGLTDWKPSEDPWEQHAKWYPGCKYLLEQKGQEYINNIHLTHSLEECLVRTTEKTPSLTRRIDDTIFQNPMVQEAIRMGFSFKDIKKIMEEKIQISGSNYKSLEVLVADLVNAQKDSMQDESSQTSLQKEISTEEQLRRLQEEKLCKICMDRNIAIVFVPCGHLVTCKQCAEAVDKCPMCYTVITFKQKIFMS

SMILES: CN[C@@H](C)C(=O)N[C@@H](CNC(=O)c1ccc(S(=O)(=O)F)cc1)C(=O)N1CCC[C@H]1C(=O)N[C@@H](Cc1ccccc1)C(N)=O
half-life [1]: 30 min
half-life [2]: 30 min
Stability [3]: Stable
Stability [4]: Unstable

SMILES: CN[C@@H](C)C(=O)N[C@@H](Cc1ccc(OS(=O)(=O)F)cc1)C(=O)N1CCC[C@H]1C(=O)N[C@@H]1CCc2c(F)cccc21
half-life at 200 µM [5]: > 120 min

SMILES: CN[C@@H](C)C(=O)N[C@@H](Cc1ccc(S(=O)(=O)O)cc1)C(=O)N1CCC[C@H]1C(=O)N[C@@H](Cc1ccccc1)C(N)=O
t1/2 [2]: > 5 h

SMILES: CN[C@@H](C)C(=O)N[C@@H](Cc1ccc(OS(=O)(=O)F)cc1)C(=O)N1CCC[C@H]1C(=O)NC1Cc2ccccc2C1
half-life at 200 µM [5]: > 120 min

SMILES: CN[C@@H](C)C(=O)N[C@@H](Cc1ccc(OS(=O)(=O)F)cc1)C(=O)N1CCC[C@H]1C(=O)N[C@@H](Cc1ccccc1)C(N)=O (H-[NMeA][Tyr(SO2F)]PF-NH2)
t1/2 [2]: > 5 h
Stability [3]: Stable
Stability [6]: Stable

SMILES: CC(C)[C@H](NC(=O)[C@H](C)N)C(=O)N1CCC[C@H]1C(=O)N[C@@H](Cc1ccccc1)C(=O)O (H-AVPF-OH)
half-life [2]: > 300 min
ΔTm [7]: 5.5 °C
ΔTm [8]: 17 °C

half-life at 200 µM [5]: > 120 min
EC50 (SK-OV-3 [9]): 3 nM
EC50 (SK-OV-3 [10]): 1 nM
SMILES: CN[C@@H](C)C(=O)N[C@H](C(=O)N1CCC[C@H]1c1nc(C(=O)c2ccc(F)cc2)cs1)C1CCCCC1 [LCL-161]

SMILES: CN[C@@H](C)C(=O)N[C@@H](CNCc1ccc(S(=O)(=O)F)cc1)C(=O)N1CCC[C@H]1C(=O)N[C@@H]1CCc2c(F)cccc21
half-life at 200 µM [5]: 15 min
metabolised at 40 min, 200 µM [11]: 100%

SMILES: CN[C@@H](C)C(=O)N[C@@H](CNCc1ccc(S(=O)(=O)F)cc1)C(=O)N1CCC[C@H]1C(=O)N[C@@H](Cc1ccccc1)C(N)=O
half-life [2]: 150 min
Stability [3]: Stable
Stability [6]: Stable

SMILES: CN[C@@H](C)C(=O)N[C@H](C(=O)N1CCC[C@H]1C(=O)Nc1snnc1-c1ccccc1)C1CCCCC1 [GDC-0152]
half-life at 200 µM [5]: 60 min
EC50 (SK-OV-3 [9]): 3 nM
EC50 (SK-OV-3 [10]): 2.5 nM
ΔTm [7]: 15 °C
ΔTm [8]: 19.5 °C
IC50 [12]: 21 nM
IC50 [13]: 21 nM

From ChEMBL document CHEMBL4304749, “Covalent Inhibitors of Protein-Protein Interactions Targeting Lysine, Tyrosine, or Histidine Residues” (J Med Chem, 2019)
